Holding throughout (test): growth of human tumour cells (NCI), 48 h
Experiment [1] has as its system 786-0 renal.
The subject of experiment [2] is HOP-62 NSCLC.
The subject of experiment [3] is NCI-H460 lung.
For experiment [4], the system named is PC-3 prostate.
Experiment [5] concerns RXF 393 renal.
Experiment [6] deals with SK-MEL-28 melanoma.
Experiment [7] has as its system SK-OV-3 ovarian.
Experiment [8] relates to SN12C renal.
The test system of experiment [9] is U251 CNS.
Experiment [10] has as its system UO-31 renal.

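Grown in 96-well plates, cells were treated for 48 hours with each compound at five concentrations. Insufficient inhibition: endpoint recorded as highest concentration tested. GI50 is the concentration that inhibits growth by half. TGI is the concentration that stops growth completely.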 Where only a bound is given, the exact number is not on record here.

As to `c1ccc2c(-c3nc4ccccc4[nH]3)cccc2c1`, the GI50 is 5.5 µM in [1]; 5.35 µM in experiment [2]; 3.17 µM in [3]; 3.88 µM in experiment [4]; 2.58 µM in experiment [5]; 4.64 µM in [6]. Besides, the GI50 was 4.04 µM in experiment [7], 5.03 µM in experiment [8], 3.72 µM in experiment [9] and 4.72 µM in experiment [10]. In addition, the TGI is > 100 µM in experiment [1]; 30.3 µM in experiment [2]; 15.8 µM in experiment [3]; > 100 µM in experiment [4]; 12 µM in experiment [5]; > 100 µM in [6]. The TGI in experiment [7] is 27.3 µM; in [8] it was > 100 µM; in [9], 26.3 µM; in experiment [10] it was 33.3 µM.
Consider `COc1cc(/C=C/C(=O)C(C(=O)/C=C/c2ccc(OC(=O)CCNc3nnc(C)s3)c(OC)c2)C(=O)CCNc2nnc(C)s2)ccc1OC(=O)CCNc1nnc(C)s1`, for which the GI50 in [1] is 2.58 µM; in experiment [2], 5.02 µM; in [3], 2.2 µM; in experiment [4] it was 2.85 µM; in experiment [5], 1.3 µM; in [6] it was 1.75 µM. Moreover, the GI50 in [7] was 4.65 µM; in experiment [8] it was 2.49 µM; in experiment [9] it was 2.48 µM; in [10], 1.62 µM. In addition, the TGI in [1] was 9.51 µM; in [2], > 31.8 µM; in experiment [3] it was 4.7 µM; in [4] it was 15.4 µM; in [5], 3.22 µM; in [6], 4.02 µM. Besides, the TGI came to 23.6 µM in experiment [7], 10.2 µM in experiment [8], 7.35 µM in experiment [9] and 3.67 µM in [10].
For `COc1ccc(Cn2cc3c(c2-c2ccc(O)cc2)CCc2cnoc2-3)cc1`, the GI50 in experiment [1] was 0.695 µM; in [2] it was 0.49 µM; in [3] it was 0.321 µM; in [4] it was 0.653 µM; in experiment [5], 0.309 µM; in experiment [6], 0.616 µM. Besides, the GI50 was 0.34 µM in experiment [7], 1.16 µM in [8], 0.447 µM in experiment [9] and 0.653 µM in [10]. The TGI in [1] came out at 19.1 µM; in experiment [2], 18.4 µM; in experiment [3], 4.45 µM; in [4], 44.5 µM; in experiment [5], 3.67 µM; in [6], 21.7 µM. Besides, the TGI in experiment [7] worked out at 14.3 µM; in experiment [8] it was 23.2 µM; in experiment [9], 15.1 µM; in experiment [10] it was 18.7 µM.
Take `O=C(Nc1cccnc1)c1cccc([N+](=O)[O-])c1`: the GI50 in experiment [1], in [2], in [3], in [4], in experiment [5] and in experiment [6] was > 100 µM in each case. Moreover, the GI50 in experiment [7], in experiment [8], in experiment [9] and in [10] was > 100 µM in each case. Moreover, the TGI in [1], in experiment [2], in experiment [3], in [4], in [5] and in experiment [6] was > 100 µM in each case. Moreover, the TGI in experiment [7], in experiment [8], in [9] and in [10] was > 100 µM in each case.
With `O=C(NCC(=O)N1CC[C@H](NC2CCC(O)(c3ccc(-c4ncccn4)cn3)CC2)C1)c1cccc(C(F)(F)F)c1` (stereo not given in full), the GI50 in experiment [1] is > 100 µM; in experiment [2] it was 95.1 µM; in experiment [3] it was 86.5 µM; in [4] it was 51.6 µM; in experiment [5], 61.7 µM; in experiment [6], > 100 µM. Besides, the GI50 in experiment [7] was > 100 µM; in [8], > 100 µM; in experiment [9] it was 91.8 µM; in experiment [10], 52.3 µM. In addition, the TGI in experiment [1], in experiment [2], in [3], in [4], in [5] and in experiment [6] was > 100 µM throughout. The TGI in [7], in [8], in [9] and in experiment [10] was > 100 µM in each case.
On to `O=C1/C(=C/c2ccc(Cl)cc2)CN(Cc2cn(CCNc3ccnc4cc(Cl)ccc34)nn2)C/C1=C\c1ccc(Cl)cc1`, for which the GI50 in experiment [1] was 0.247 µM; in experiment [2], 0.272 µM; in experiment [3] it was 0.247 µM; in experiment [4], 0.26 µM; in experiment [5] it was 0.201 µM; in experiment [6], 1.4 µM. The GI50 in experiment [7] is 1.03 µM; in [8], 1.08 µM; in experiment [9], 0.185 µM; in experiment [10], 0.242 µM. Moreover, the TGI in [1] worked out at 0.616 µM; in experiment [2] it was 0.729 µM; in experiment [3], 0.602 µM; in experiment [4], 0.776 µM; in experiment [5], 0.416 µM; in [6], 2.81 µM. Further, the TGI in experiment [7] is 2.38 µM; in experiment [8] it was 3.38 µM; in experiment [9], 0.391 µM; in experiment [10], 0.698 µM.
As to `O=C(Nc1cccc([N+](=O)[O-])c1)c1ccc2ccccc2c1O`, the GI50 in experiment [1] was 4.46 µM; in [2], 10.8 µM; in experiment [3] it was 3.69 µM; in experiment [4], 3.87 µM; in [5], 3.37 µM; in experiment [6] it was 6.03 µM. Besides, the GI50 was 7.05 µM in experiment [7], 12 µM in [8], 4.36 µM in experiment [9] and 3.35 µM in experiment [10]. The TGI in experiment [1] is > 100 µM; in [2], > 100 µM; in experiment [3] it was > 100 µM; in experiment [4] it was > 80.7 µM; in experiment [5], > 35.4 µM; in experiment [6], > 100 µM. In addition, the TGI in experiment [7] is > 59.9 µM; in experiment [8], > 93 µM; in [9], > 86.8 µM; in [10], > 53 µM.

Source of the values: PubChem BioAssay (NCI).
